Measurements taken from ChEMBL document CHEMBL5728357, “Small molecule inhibitors of lactate dehydrogenase and methods of use thereof” (2021).
Several values for one entry are separate records, joined by “and”; a condition that tells them apart may be missing. Equal values may be shown once.

test: Biochemical Assay: Test compounds were placed in a Greiner Bio-One (Monroe, N.C.) 1536-well black solid bottom assay plate. 200 millimolar (mM) Tris HCl, pH 7.4, 100 micromolar […] EDTA and 0.01% TWEEN-20™, final concentration, was used as the assay buffer. The LDHA reagent was 2 nanomolar (nM) Human LDHA (Meridian Life Science, Inc., Memphis, Tenn.), final concentration, in assay buffer.

Row | SMILES | IC50
1 | NS(=O)(=O)c1ccc(Cc2c(-c3cccc(-c4ccccc4)c3)nn(-c3nc(C(=O)O)cs3)c2CCC2CC2)cc1 | < 100 nM
2 | N[S+](=O)([O-])c1ccc(Cc2c(-c3ccc(F)c(C(F)(F)F)c3)nn(-c3nc(C(=O)O)cs3)c2CC2CC2)cc1F | < 100 nM
3 | COc1cccc(-c2cccc(-c3nn(-c4nc(C(=O)O)cs4)c(C4CC4)c3Cc3ccc([SH+](N)[O-])c(F)c3)c2)c1 (stereo not given) | < 100 nM
4 | N[S+](=O)([O-])c1ccc(Cc2c(-c3ccc(F)c(/C=C/C4CC4)c3)nn(-c3nc(C(=O)O)cs3)c2CC2CC2)cc1F | < 100 nM
5 | N[S+](=O)([O-])c1ccc(Cc2c(-c3ccc(F)c(-c4ccc(F)cc4)c3)nn(-c3nc(C(=O)O)cs3)c2CC2CC2)c(F)c1 | < 100 nM
6 | Cc1ccc(-c2cccc(-c3nn(-c4nc(C(=O)O)cs4)c(CC4CC4)c3Cc3ccc([SH+](N)[O-])cc3F)c2)cc1 (stereo not given) | < 100 nM
7 | Cc1ccc(-c2cc(-c3nn(-c4nc(C(=O)O)cs4)c(CC4CC4)c3Cc3ccc([SH+](N)[O-])c(F)c3)ccc2F)cc1 (stereo not given) | < 100 nM
8 | CC#Cc1cccc(-c2nn(-c3ncc(C(=O)OCC)s3)c(CC3CC3)c2Cc2ccc([SH+](N)[O-])c(F)c2)c1 (stereo not given) | in the range around 29000 nM

Now from value to molecule:

Row | IC50 | SMILES
9 | < 100 nM | C/C=C/c1cc(-c2nn(-c3nc(C(=O)O)cs3)c(CC3CC3)c2Cc2ccc([S+](N)(=O)[O-])c(F)c2)ccc1F
10 | < 100 nM | CC(C)=Cc1cc(-c2nn(-c3nc(C(=O)O)cs3)c(CC3CC3)c2Cc2ccc([S+](N)(=O)[O-])c(F)c2)ccc1F
11 | > 57000 nM | CCOC(=O)c1csc(-n2nc(-c3ccc(F)c(C#CC4CCCC4)c3)c(Cc3cccc([S+](N)(=O)[O-])c3)c2CC2CC2)n1
12 | < 100 nM | C=C(C)c1cc(-c2nn(-c3nc(C(=O)O)cs3)c(CC3CC3)c2Cc2ccc([S+](N)(=O)[O-])c(F)c2)ccc1F
13 | in the range around 29000 nM and > 57000 nM | CCOC(=O)c1csc(-n2nc(-c3cccc(-c4ccc(C)cc4)c3)c(Cc3ccc([SH+](=O)[O-])c(F)c3)c2CC2CC2)n1
14 | < 100 nM | N[S+](=O)([O-])c1ccc(Cc2c(-c3ccc(F)c(/C=C/C4CCCC4)c3)nn(-c3nc(C(=O)O)cs3)c2CC2CC2)cc1F
15 | in the range around 29000 nM | NS(=O)(=O)c1ccc(Cc2c(CC3CC3)nn(-c3nc(OC=O)cs3)c2-c2cc(F)cc(-c3cccc(F)c3)c2)cc1
